Earlier results, collected in US20040038429A1, “Method of searching for novel lead compound” (priority 2000, published 2004).

Target: Thrombin (Homo sapiens, UniProt P00734)
Conditions: not given

Structure (SMILES) | Known bioactivity
CC(=O)O.N=C(N)c1ccc(CC(NC(=O)CNS(=O)(=O)c2ccc3ccccc3c2)C(=O)N2CCCCC2)cc1 (stereo not shown) | Thrombin inhibitor
N=C(N)c1ccc(CC(NC(=O)CNS(=O)(=O)c2ccc3ccccc3c2)C(=O)N2CCCCC2)cc1 (stereo not shown) [drawing 16] | Thrombin inhibitor
N=C(N)c1ccc(CC(NC(=O)CNS(=O)(=O)c2ccc3ccccc3c2)C(=O)N2CCCCC2)cc1 (stereo not shown) [drawing 31] | Thrombin inhibitor
N=C(N)c1ccc(CC(NC(=O)CNS(=O)(=O)c2ccc3ccccc3c2)C(=O)N2CCCCC2)cc1 (stereo not shown) [drawing 33] | Thrombin inhibitor

Same assay, conditions: thrombin

Structure (SMILES) | Known bioactivity
COC(=O)[C@H](CCCCN)NS(=O)(=O)c1ccc(C)cc1.Cl | Thrombin substrate
COC(=O)[C@H](CCCCN)NS(=O)(=O)c1ccc(C)cc1 | Thrombin substrate
Cc1ccc(S(=O)(=O)NC(Cc2ccc(C(=N)N)cc2)C(=O)N2CCCCC2)cc1 (racemic) [4-TAPAP, Nα-(4-toluene-sulfonyl)-DL-p-amidinophenylalanyl-piperidine, reference compound] | thrombin inhibitors
C[C@@H]1CCN(C(=O)[C@H](CCCNC(=N)N)NS(=O)(=O)c2cccc3c2NC[C@H](C)C3)[C@@H](C(=O)O)C1 [MQPA, (2R,4R)-4-methyl-1-[Nα-(3-methyl-1,2,3,4-tetrahydro-8-quinolinesulfonyl)-L-arginyl]-2-piperidinecarboxylic acid, reference compound] | thrombin inhibitors
CCC1CCCN(C(=O)[C@H](CCCNC(=N)N)NS(=O)(=O)c2cccc3c(N(C)C)cccc23)C1 (stereo partly shown) [drawing 26] | Thrombin inhibitor
CCC1CCCN(C(=O)[C@H](CCCNC(=N)N)NS(=O)(=O)c2cccc3c(N(C)C)cccc23)C1 (stereo partly shown) [drawing 32] | Thrombin inhibitor

Target: 5-HT4 (Homo sapiens, UniProt Q13639)
Conditions: not given

5-HT4, sequence (Q13639 whole entry, species assumed): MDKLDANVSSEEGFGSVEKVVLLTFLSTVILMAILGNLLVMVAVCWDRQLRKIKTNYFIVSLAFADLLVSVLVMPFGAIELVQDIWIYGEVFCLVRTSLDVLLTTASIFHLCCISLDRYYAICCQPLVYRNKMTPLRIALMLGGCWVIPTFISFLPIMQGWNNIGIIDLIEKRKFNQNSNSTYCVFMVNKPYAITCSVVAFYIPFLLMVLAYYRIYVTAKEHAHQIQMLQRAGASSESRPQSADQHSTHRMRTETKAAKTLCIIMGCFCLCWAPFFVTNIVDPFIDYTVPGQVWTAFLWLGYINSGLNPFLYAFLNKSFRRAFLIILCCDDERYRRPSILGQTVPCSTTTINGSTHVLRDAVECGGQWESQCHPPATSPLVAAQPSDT

Structure (SMILES) | Known bioactivity
COc1cc(N)c(Cl)cc1C(=O)CCC1CCN(CCNS(C)(=O)=O)CC1 | 5-HT4 Partial agonist

Target: T1, Trypsin (Bos taurus, UniProt P00760)
T1 construct: gene PRSS1
Conditions: not given

T1 sequence (P00760 24-246): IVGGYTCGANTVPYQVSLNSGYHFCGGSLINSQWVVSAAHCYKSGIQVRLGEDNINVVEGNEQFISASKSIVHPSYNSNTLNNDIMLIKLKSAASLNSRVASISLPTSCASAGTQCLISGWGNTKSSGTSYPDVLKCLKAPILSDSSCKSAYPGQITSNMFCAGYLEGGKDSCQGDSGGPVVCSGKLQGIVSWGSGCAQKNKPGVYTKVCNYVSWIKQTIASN

Structure (SMILES) | Known bioactivity
Cc1ccc(S(=O)(=O)N[C@@H](CCCCN)C(=O)CCl)cc1.Cl | Trypsin inhibitor
Cc1ccc(S(=O)(=O)N[C@@H](CCCCN)C(=O)CCl)cc1 | Trypsin inhibitor
